Activity calls are given as the source filed them. The rule behind the calls is not given here.
Experiments:
[1] = biological target: T1, Nuclear factor erythroid 2-related factor 2 (Homo sapiens) (UniProt Q16236); experiment: Activation of Nrf2 in human HepG2 cells at 2 uM incubated for 12 hrs by ARE-driven luciferase reporter gene assay relative to control; assay type: cell-based
T1 sequence (whole entry): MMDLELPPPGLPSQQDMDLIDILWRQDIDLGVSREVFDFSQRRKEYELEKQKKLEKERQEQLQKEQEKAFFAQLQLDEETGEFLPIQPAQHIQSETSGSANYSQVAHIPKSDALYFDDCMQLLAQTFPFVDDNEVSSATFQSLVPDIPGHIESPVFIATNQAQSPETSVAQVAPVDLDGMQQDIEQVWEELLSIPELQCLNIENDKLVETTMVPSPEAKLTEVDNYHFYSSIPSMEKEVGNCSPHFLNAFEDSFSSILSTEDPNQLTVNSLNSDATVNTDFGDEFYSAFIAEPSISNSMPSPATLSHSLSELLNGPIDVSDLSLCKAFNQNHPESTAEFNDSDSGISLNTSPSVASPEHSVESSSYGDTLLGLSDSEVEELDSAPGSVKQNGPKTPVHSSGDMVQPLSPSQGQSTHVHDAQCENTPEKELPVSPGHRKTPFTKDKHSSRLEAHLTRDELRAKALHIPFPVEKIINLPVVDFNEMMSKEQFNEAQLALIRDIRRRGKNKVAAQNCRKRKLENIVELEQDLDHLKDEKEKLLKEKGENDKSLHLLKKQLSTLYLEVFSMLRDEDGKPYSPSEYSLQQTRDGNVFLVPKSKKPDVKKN

[2] = biological target: T1, Nuclear factor erythroid 2-related factor 2 (Homo sapiens); experiment: Activation of Nrf2 in human HepG2 cells at 160 uM incubated for 12 hrs by ARE-driven luciferase reporter gene assay relative to control; assay type: cell-based
[3] = biological target: T1, Nuclear factor erythroid 2-related factor 2 (Homo sapiens); experiment: Activation of Nrf2 in human HepG2 cells at 0.02 uM incubated for 12 hrs by ARE-driven luciferase reporter gene assay relative to control; assay type: cell-based
[4] = biological target: T1, Nuclear factor erythroid 2-related factor 2 (Homo sapiens); experiment: Activation of Nrf2 in human HepG2 cells at 20 uM incubated for 12 hrs by ARE-driven luciferase reporter gene assay relative to control; assay type: cell-based
[5] = biological target: T1, Nuclear factor erythroid 2-related factor 2 (Homo sapiens); experiment: Activation of Nrf2 in human HepG2 cells at 0.2 uM incubated for 12 hrs by ARE-driven luciferase reporter gene assay relative to control; assay type: cell-based
[6] = biological target: T1, Nuclear factor erythroid 2-related factor 2 (Homo sapiens); experiment: Activation of Nrf2 in human HepG2 cells at 5 uM incubated for 12 hrs by ARE-driven luciferase reporter gene assay relative to control; assay type: cell-based
[7] = biological target: T1, Nuclear factor erythroid 2-related factor 2 (Homo sapiens); experiment: Activation of Nrf2 in human HepG2 cells at 40 uM incubated for 12 hrs by ARE-driven luciferase reporter gene assay relative to control; assay type: cell-based
[8] = biological target: T1, Nuclear factor erythroid 2-related factor 2 (Homo sapiens); experiment: Activation of Nrf2 in human HepG2 cells at 80 uM incubated for 12 hrs by ARE-driven luciferase reporter gene assay relative to control; assay type: cell-based
[9] = Cytotoxicity against human L02 cells assessed as cell viability at low to medium concentration after 24 hrs by MTT assay relative to control; assay type: cell-based; settings: l02, 24 h
L02 = experiment: Cytoprotective activity against H2O2-induced cytotoxicity in human L02 cells assessed as cell viability pretreated at 20 uM for 24 hrs followed by H2O2 challenge for 12 hrs by MTT assay (reference value: 50%); assay type: functional
[10] = Cytotoxicity against rat PC12 cells assessed as cell viability at low to medium concentration after 24 hrs by MTT assay relative to control; assay type: cell-based; settings: pc-12, 24 h
[11] = Cytotoxicity against human NCM460 cells assessed as cell viability at low to medium concentration after 24 hrs by MTT assay relative to control; assay type: cell-based; settings: ncm460, 24 h
PC-12 = experiment: Cytoprotective activity against H2O2-induced cytotoxicity in rat PC12 cells assessed as cell viability pretreated at 20 uM for 24 hrs followed by H2O2 challenge for 12 hrs by MTT assay (reference value: 50%); assay type: functional
NCM460 = experiment: Cytoprotective activity against H2O2-induced cytotoxicity in human NCM460 cells assessed as cell viability pretreated at 20 uM for 24 hrs followed by H2O2 challenge for 12 hrs by MTT assay (reference value: 50%); assay type: functional

Row | SMILES | fold change (FC) [1] | fold change (FC) [2] | fold change (FC) [3] | fold change (FC) [4] | fold change (FC) [5] | fold change (FC) [6] | fold change (FC) [7] | fold change (FC) [8] | also measured
1 | Cn1cnc2ccc(-c3noc(-c4ccc5cc[nH]c5c4)n3)cc21 | 3.35 | 8.73 | 1.09 | 5.47 | 1.5 | 4.1 | 12.4 | 12.1 | –
2 | CN(C)C=O [DIMETHYLFORMAMIDE] | 1.1 | – | 0.82 | 1.65 | 1 | – | 2.97 | – | Activity [9]: Non-toxic; Activity (L02): Active; Activity [10]: Non-toxic; Activity [11]: Non-toxic; Activity (PC-12): Active; Activity (NCM460): Active
3 | CN(C)c1cccc(-c2nc(-c3ccc4c(c3)[nH]c(=O)n4C3CCCC3)no2)c1 | 3.64 | 3.06 | 2.59 | 5.38 | 3.53 | 1.94 | 8.89 | 3.08 | –
4 | CCc1ccc(-c2nc(-c3ccc4oc(C)nc4c3)no2)cc1 | – | – | – | 4.52 | – | 2.36 | – | – | –
5 | Clc1cc(-c2nc(-c3ccc4oc(-c5ccccc5)nc4c3)no2)ccn1 | 4.64 | 10.5 | 3.08 | 6.64 | 3.41 | 4.64 | 6.38 | 9.84 | –
6 | Cc1nc2cc(-c3noc(-c4cccc(C#N)c4)n3)ccc2o1 | – | – | – | 2.6 | – | 4.76 | – | – | –
7 | CCOc1ccc(-c2nc(-c3ccc(-c4csc(C)n4)cc3)no2)c(CC)c1 | – | – | – | 3.08 | – | 1.09 | – | – | –
8 | COc1ccc(Cl)cc1-c1nc(-c2ccc3oc(C)nc3c2)no1 | – | – | – | 3.72 | – | 3.62 | – | – | –
9 | CCOc1ccc(-c2nc(-c3ccc4[nH]c(=O)n(C5CCCC5)c4c3)no2)cc1OCC | – | – | – | 3.38 | – | 1.31 | – | – | –
10 | Cc1nc2cc(-c3noc(-c4cccnc4)n3)ccc2o1 | – | – | – | 7.08 | – | 3.29 | – | – | –
